# According to PMC2791885 (Journal of nuclear medicine : official publication, Society …, 2009):
# Key:
# PDE4 = assay: PET compartmental modeling of brain and plasma data
# [1] = ultrafiltration, 5 control animals; cited from earlier work
# [2] = transient equilibrium, range over scans
smiles,measurement,setting,value
COc1ccc([C@@H]2CNC(=O)C2)cc1OC1CCCC1 [(R)-rolipram],concentration of free radioligand calculated with Equation 2,PDE4; baseline scans,0.08 to 0.17 nM
same,concentration of free radioligand calculated with Equation 2,PDE4; partially blocked scans,0.29 to 3.00 nM
same,calculated concentration of free ligand in brain,PDE4; [2],0.07 to 5.68 nM
same,calculated concentration of specifically bound ligand in brain,PDE4; [2],3.63 to 88.3 nM
same,plasma-free fraction (fP),[1],30.5% ± 3.1
